One test has as its system Rattus norvegicus. In words: Tested for minimum effective dose required to cause motor in coordination in Geller-Seifter model in CFY rats (route of administration is peroral 30 min before testing). The format is functional. To be noted: po, read-out: MED.
Test [1] deals with GABA-A receptor; anion channel. In words: Displacement of [3H]flunitrazepam from GABA-A central benzodiazepine receptor of mouse brain. A general note: Loss of bound radioactivity is the signal in a displacement assay; it reports binding, not function.
Test [2] has as its target GABA-A receptor; anion channel. In words: Displacement of [35S]TBPS from GABA-A receptor complex at low umolar concentration. It is filed as protein-complex assay.
Test [3] concerns GABA-A receptor; anion channel. As to the kind of experiment: Displacement of [3H]flunitrazepam from GABA-A central benzodiazepine receptor of mouse brain (insoluble).
The subject of test [4] is GABA-A receptor; anion channel. As to the kind of experiment: Displacement of [35S]TBPS from GABA-A receptor complex at low umolar concentration (insoluble). It is filed as protein-complex assay.

Molecules are shown by their SMILES. Bounds are passed on as bounds.

Experimental findings from ChEMBL document CHEMBL1153654, “Synthesis and potential anxiolytic activity of 4-amino-pyrido[2,3-b]indoles” (Bioorg Med Chem Lett, 1993) are described below.

For the compound `CCn1c2ccccc2c2c(N)c(C(=O)OC)c(C)nc21`, the minimal effective dose with Rattus norvegicus was 5 mg/kg. In addition, the IC50 – broadly, the concentration that gives 50% inhibition – in test [1] was greater than 100 µM; in test [2] it was 5.9 µM.
In the case of `COC(=O)c1c(-c2ccccc2)nc2c(c1N)c1ccccc1n2C`, the minimal effective dose with Rattus norvegicus was found to be 50 mg/kg. For the same compound, the IC50 in test [1] is greater than 30 µM; in test [2], 11.2 µM.
On the same counts, the results for `C=CCOC(=O)c1c(C)nc2c(c1N)c1ccccc1n2C` are 20 mg/kg, greater than 100 µM and 3.8 µM.
Take `Cc1nc2c(c(N)c1C(=O)O)c1ccccc1n2C`: the minimal effective dose with Rattus norvegicus was greater than 50 mg/kg. Besides, the concentration for half-maximal inhibition (IC50) in test [1] and in test [2] was greater than 100 µM throughout.
As for `CCCOC(=O)c1c(C)nc2c(c1N)c1ccccc1n2C`, in the test with Rattus norvegicus, the minimal effective dose amounted to 10 mg/kg. Moreover, the values for the IC50 in test [1] and in test [2] were greater than 100 µM and 2.2 µM, respectively.
On the same counts, the results for `COC(=O)c1c(C)nc2c(c1N)c1ccccc1n2C1CCCC1` are greater than 50 mg/kg, greater than 100 µM and 80 µM.
On the same counts, the results for `CNc1c(C(=O)OC)c(C)nc2c1c1ccccc1n2C` are 20 mg/kg, 82.3 µM and 17.1 µM.
With `CCOC(=O)c1c(C)nc2c(c1N)c1ccccc1n2C`, the minimal effective dose in the test on Rattus norvegicus is 10 mg/kg. Also, the IC50 in test [1] was greater than 100 µM; in test [2], 4.6 µM.
For the compound `COC(=O)c1c(C)nc2c(c1N)c1ccccc1n2C(=O)OC`, in the test on Rattus norvegicus, the minimal effective dose turned out to be 20 mg/kg. Moreover, the IC50 is greater than 30 µM in test [1] and 9.5 µM in test [2].
Regarding `COC(=O)c1c(C)[nH]c2nc3ccccc3c-2c1N`, the half-maximal inhibitory concentration (IC50) entry in test [3] and in test [4] was “Insoluble” in each case. Also, in the test on Rattus norvegicus, the minimal effective dose worked out at 5 mg/kg.
For `COC(=O)c1c(C)nc2c(c1N)c1ccccc1n2C`, the minimal effective dose in the test with Rattus norvegicus was found to be 10 mg/kg. The values for the IC50 in test [1] and in test [2] were greater than 100 µM and 14.6 µM, respectively.
`CCOC(=O)c1c(C)nc2c(c1N)c1ccccc1n2Cc1ccccc1`: the 50% inhibitory concentration (IC50) entry in test [3] and in test [4] was “Insoluble” throughout. The minimal effective dose in the test with Rattus norvegicus was greater than 50 mg/kg.
With `Cc1[nH]c2nc3ccccc3c-2c(N)c1C(N)=O`, the minimal effective dose in the test on Rattus norvegicus was greater than 50 mg/kg. The IC50 in test [1] and in test [2] was greater than 100 µM throughout.
Regarding `COP(=O)(OC)c1c(C)nc2c(c1N)c1ccccc1n2C`, in the test with Rattus norvegicus, the minimal effective dose was greater than 20 mg/kg. In addition, the half-inhibitory concentration (IC50) in test [1] and in test [2] was greater than 30 µM each time.
On to `COC(=O)c1c(C)nc2c(c1N)c1cc(Cl)ccc1n2C`, for which the concentration for half-maximal inhibition (IC50) result in test [3] and in test [4] was “Insoluble” each time. For the same compound, the minimal effective dose in the test on Rattus norvegicus was determined as 50 mg/kg.
For the compound `Cc1nc2c(c(N)c1CO)c1ccccc1n2C`, the minimal effective dose in the test on Rattus norvegicus was greater than 50 mg/kg. For the same compound, the IC50 in test [1] and in test [2] was greater than 100 µM throughout.
`Cc1nc2c(c(N)c1C(=O)OCc1ccccc1)c1ccccc1n2C`: the minimal effective dose in the test with Rattus norvegicus was greater than 50 mg/kg. Besides, the IC50 in test [1] and in test [2] was greater than 30 µM throughout.
Take `CN1C(=O)CN=C(c2ccccc2)c2cc(Cl)ccc21` [DIAZEPAM]: the minimal effective dose in the test on Rattus norvegicus worked out at 2.5 mg/kg.
